Biological target: T1, DOCK2DHR-2 (lobe B and lobe C of the DHR-2 domain of DOCK2) (Homo sapiens, UniProt Q92608)
T1 construct: polypeptide fragments corresponding to a DHR-2 domain including the lobe B and the lobe C of DOCK2; Histidine-SUMO (N); made in house; host or cells: E. coli Arctic express DE3 (pET28a); Rac in E. coli BL21 DE3 (pGEX-6P-1)
T1 sequence (Q92608 1196-1622): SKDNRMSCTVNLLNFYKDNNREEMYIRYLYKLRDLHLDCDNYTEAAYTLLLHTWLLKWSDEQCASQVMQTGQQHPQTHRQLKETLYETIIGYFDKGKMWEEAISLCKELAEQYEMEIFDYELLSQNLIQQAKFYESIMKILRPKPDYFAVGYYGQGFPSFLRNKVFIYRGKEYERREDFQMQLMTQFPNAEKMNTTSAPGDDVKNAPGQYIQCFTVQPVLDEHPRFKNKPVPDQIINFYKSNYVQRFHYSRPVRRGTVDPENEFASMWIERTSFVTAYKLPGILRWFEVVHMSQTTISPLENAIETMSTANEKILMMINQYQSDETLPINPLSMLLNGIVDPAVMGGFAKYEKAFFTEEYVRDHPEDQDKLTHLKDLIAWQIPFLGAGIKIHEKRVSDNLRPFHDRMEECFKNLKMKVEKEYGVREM
Experiment: in-vitro GEF assay, Rac activation by DOCK2 DHR-2 domain with various steroid compounds (Experimental Example 2)
Type: biochemical
Details: Experimental Example 2, Table 1; read-out: IC50 against the Rac activation by DOCK2DHR-2
Description: An examination was performed using various steroid compounds to test their effects on the Rac activation induced by proteins composed of the lobe B and the lobe C of the DHR-2 domain of DOCK2.
As the steroid compounds, cholesterol 3-sulfate (hereinafter, referred to as “C3S” in some cases), cholesterol, cholesterol 3-acetate (hereinafter, referred to as “C3A” in some cases), pregnenolone 3-sulfate (hereinafter, referred to as “PREG3S” in some cases), dehydroepiandrosterone (hereinafter, referred to as “DHEA” in some cases), dehydroepiandrosterone 3-sulfate (hereinafter, referred to as “DHEA3S” in some cases), estrone 3-sulfate (hereinafter, referred to as “Estrone3S” in some cases), estriol 3-sulfate (hereinafter, referred to as “Estriol3S” in some cases), and estradiol 3-sulfate (hereinafter, referred to as “Estradiol3S” in some cases) were used.
More specifically, a DOCK2-DHR-2 domain protein prepared by the same method as described above was incubated for 20 minutes at room temperature in the presence of various steroid compounds at a predetermined concentration dissolved in DMSO or in the presence of DMSO alone (control) under the shielded condition from light, thereby preparing a pretreated substance of GEF. The concentration of DMSO was adjusted such that it became 3% (1% in the final reaction solution) in all samples. Then, by in-vitro GEF assay in which Rac and Bodipy-FL-GTP prepared by the same method as described above were used, Rac activation by the DHR-2 domain was measured.

Row | Compound | IC50
1 | CC(=O)O[C@H]1CC[C@@]2(C)C(=CC[C@H]3[C@@H]4CC[C@H]([C@H](C)CCCC(C)C)[C@@]4(C)CC[C@@H]32)C1 [C3A, cholesterol 3-acetate] | > 200 µM
2 | CC(C)CCC[C@@H](C)[C@H]1CC[C@H]2[C@@H]3CC=C4C[C@@H](O)CC[C@]4(C)[C@H]3CC[C@]12C [Cholesterol, cholesterol] | > 200 µM
3 | C[C@]12CC[C@H](OS(=O)(=O)O)CC1=CC[C@@H]1[C@@H]2CC[C@]2(C)C(=O)CC[C@@H]12 [DHEA3S, dehydroepiandrosterone 3-sulfate] | > 200 µM
4 | C[C@]12CC[C@@H]3c4ccc(OS(=O)(=O)O)cc4CC[C@H]3[C@@H]1CC[C@@H]2O [Estradiol3S, estradiol 3-sulfate] | > 200 µM
5 | C[C@]12CC[C@@H]3c4ccc(OS(=O)(=O)O)cc4CC[C@H]3[C@@H]1C[C@@H](O)[C@@H]2O [Estriol3S, estriol 3-sulfate] | > 200 µM
6 | C[C@]12CC[C@@H]3c4ccc(OS(=O)(=O)O)cc4CC[C@H]3[C@@H]1CCC2=O [Estrone3S, estrone 3-sulfate] | > 200 µM
7 | CC(=O)C1CCC2C3CC=C4CC(OS(=O)(=O)O)CCC4(C)C3CCC12C (centres unmarked) [PREG3S, pregnenolone 3-sulfate] | 76.6 µM

Same assay, conditions: IC50 against the Rac activation by DOCK2DHR-2, Experimental Example 2, Table 1

Row | Compound | IC50
8 | C[C@]12CC[C@H](O)CC1=CC[C@@H]1[C@@H]2CC[C@]2(C)C(=O)CC[C@@H]12 [DHEA, dehydroepiandrosterone] | > 200 µM

— patent publication US12213984B2, “Immunoregulatory agent” (KYUSHU UNIVERSITY, NATIONAL UNIVERSITY CORPORATION, priority 2015, dated 2025)
